According to PubChem BioAssay AID1963959 (Molecular Pharmacology Branch, DTP, NCI, 2024):

Test system: T-47D spheroids with HUVEC/MSC, viability
Test: Anticancer human tumor T-47D cell line growth inhibition [PI3K];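 further: spheroids exposed to agents for seven days before reading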;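 on viability, T/C: percent of DMSO vehicle control luminescence so 100% = untreated growth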
Conditions: for viability, T/C: stronger effect = lower value
Summary of the method: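 Viability of mixed-cell spheroids was determined after exposure to pairwise combinations, one partner being inavolisib, alpelisib, duvelisib or copanlisib. Highest tested concentration matched clinical Cmax where known and 10 microM where not, descending in half-log steps.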

Question: With `CC(C)n1nc(-c2ccc3oc(N)nc3c2)c2c(N)ncnc21` as the compound, how does the viability, T/C (compound 0.000316 µM) read?
Answer: 104% [middle of 4 runs]

Question: What about the viability, T/C (compound 0.001 µM) of the same compound?
Answer: 96.4% [middle of 4 runs]

Question: What about the viability, T/C (compound 0.00316 µM) of the same compound?
Answer: 97.8% [middle of 4 runs]

Question: What about the viability, T/C (compound 0.0316 µM) of the same compound?
Answer: 87.3% [middle of 4 runs]

Question: What about the viability, T/C (compound 0.1 µM) of the same compound?
Answer: 35.7% [middle of 4 runs]

Question: And the IC50 (curve of compound)?
Answer: 70.6 nM [middle of 4 runs]

Question: With `Cn1cnc2c(F)c(Nc3ccc(Br)cc3Cl)c(C(=O)NOCCO)cc21` as the compound, how does the viability, T/C (compound 0.00949 µM) read?
Answer: 98.5% [middle of 4 runs]

Question: And the viability, T/C (compound 0.0949 µM)?
Answer: 95.3% [middle of 4 runs]

Question: What about the viability, T/C (compound 0.3 µM) of the same compound?
Answer: 98.9% [middle of 4 runs]

Question: What about the viability, T/C (compound 0.949 µM) of the same compound?
Answer: 88% [middle of 4 runs]

Question: What about the viability, T/C (compound 3 µM) of the same compound?
Answer: 95.5% [middle of 4 runs]

Question: And the IC50 (curve of compound)?
Answer: > 3 µM

Question: Which IC50 (curve of first compound, second compound 0.00316 µM) does the source give for `C[C@@H](NC(=O)c1ncnc(N)c1Cl)c1ncc(C(=O)Nc2cc(C(F)(F)F)c(Cl)cn2)s1` + CC(Nc1ccc2c(c1)OCCn1cc(N3C(=O)OCC3C(F)F)nc1-2)C(N)=O here?
Answer: > 10 µM

Question: And the IC50 (curve of first compound, second compound 0.01 µM)?
Answer: > 10 µM

Question: And the IC50 (curve of first compound, second compound 0.0316 µM)?
Answer: > 10 µM

Question: And the IC50 (curve of first compound, second compound 0.1 µM)?
Answer: > 10 µM

Question: And the IC50 (curve of first compound, second compound 0.316 µM)?
Answer: > 10 µM

Question: What about the IC50 (curve of first compound, second compound 1 µM) of the same compound?
Answer: > 10 µM

Question: What about the viability, T/C (second compound 0.00316 µM, first compound 0.0316 µM) of the same compound?
Answer: 110%

Question: What about the viability, T/C (second compound 0.00316 µM, first compound 0.1 µM) of the same compound?
Answer: 92.2%

Question: What about the viability, T/C (second compound 0.00316 µM, first compound 0.316 µM) of the same compound?
Answer: 87.9%

Question: And the viability, T/C (second compound 0.00316 µM, first compound 1 µM)?
Answer: 79.2%

Question: What about the viability, T/C (second compound 0.00316 µM, first compound 3.16 µM) of the same compound?
Answer: 94.5%

Question: What about the viability, T/C (second compound 0.00316 µM, first compound 10 µM) of the same compound?
Answer: 99.3%

Question: And the viability, T/C (second compound 0.01 µM, first compound 0.0316 µM)?
Answer: 104%

Question: And the viability, T/C (second compound 0.01 µM, first compound 0.1 µM)?
Answer: 85.3%

Question: And the viability, T/C (second compound 0.01 µM, first compound 0.316 µM)?
Answer: 87.4%

Question: And the viability, T/C (second compound 0.01 µM, first compound 1 µM)?
Answer: 83.3%

Question: What about the viability, T/C (second compound 0.01 µM, first compound 3.16 µM) of the same compound?
Answer: 113%

Question: What about the viability, T/C (second compound 0.01 µM, first compound 10 µM) of the same compound?
Answer: 101%

Question: What about the viability, T/C (second compound 0.0316 µM, first compound 0.0316 µM) of the same compound?
Answer: 95.2%

Question: What about the viability, T/C (second compound 0.0316 µM, first compound 0.1 µM) of the same compound?
Answer: 87.3%

Question: What about the viability, T/C (second compound 0.0316 µM, first compound 0.316 µM) of the same compound?
Answer: 83.8%

Question: And the viability, T/C (second compound 0.0316 µM, first compound 1 µM)?
Answer: 86.2%

Question: What about the viability, T/C (second compound 0.0316 µM, first compound 3.16 µM) of the same compound?
Answer: 91.4%

Question: And the viability, T/C (second compound 0.0316 µM, first compound 10 µM)?
Answer: 94.7%

Question: And the viability, T/C (second compound 0.1 µM, first compound 0.0316 µM)?
Answer: 79.8%

Question: And the viability, T/C (second compound 0.1 µM, first compound 0.1 µM)?
Answer: 82%

Question: And the viability, T/C (second compound 0.1 µM, first compound 0.316 µM)?
Answer: 83.3%

Question: What about the viability, T/C (second compound 0.1 µM, first compound 1 µM) of the same compound?
Answer: 97.1%

Question: And the viability, T/C (second compound 0.1 µM, first compound 3.16 µM)?
Answer: 97.4%

Question: And the viability, T/C (second compound 0.1 µM, first compound 10 µM)?
Answer: 94.4%

Question: What about the viability, T/C (second compound 0.316 µM, first compound 0.0316 µM) of the same compound?
Answer: 69.4%

Question: What about the viability, T/C (second compound 0.316 µM, first compound 0.1 µM) of the same compound?
Answer: 79.6%

Question: And the viability, T/C (second compound 0.316 µM, first compound 0.316 µM)?
Answer: 75.2%

Question: And the viability, T/C (second compound 0.316 µM, first compound 1 µM)?
Answer: 69.8%

Question: And the viability, T/C (second compound 0.316 µM, first compound 3.16 µM)?
Answer: 71.8%

Question: And the viability, T/C (second compound 0.316 µM, first compound 10 µM)?
Answer: 74.3%

Question: What about the viability, T/C (second compound 1 µM, first compound 0.0316 µM) of the same compound?
Answer: 52.9%

Question: What about the viability, T/C (second compound 1 µM, first compound 0.1 µM) of the same compound?
Answer: 53.4%

Question: What about the viability, T/C (second compound 1 µM, first compound 0.316 µM) of the same compound?
Answer: 65%

Question: And the viability, T/C (second compound 1 µM, first compound 1 µM)?
Answer: 57.9%

Question: What about the viability, T/C (second compound 1 µM, first compound 3.16 µM) of the same compound?
Answer: 62.3%

Question: What about the viability, T/C (second compound 1 µM, first compound 10 µM) of the same compound?
Answer: 65.8%
